Source: PMC10527105, “Chirality Matters: Fine-Tuning of Novel Monoamine Reuptake Inhibitors Selectivity through Manipulation of Stereochemistry” (Biomolecules, 2023)
“Also recorded” adds a separate entry of the source.

Legend:
[1] = biological target: T1, human NET (Homo sapiens, UniProt P23975); experiment: Radioligand binding assay, [3H]nisoxetine, CHO cells (Eurofins Cerep); settings: human NET expressed in CHO cells; read-out: Ki, binding sites of the NET (against [3H]nisoxetine)
T1 construct: host or cells: CHO
T1 sequence (P23975 whole entry): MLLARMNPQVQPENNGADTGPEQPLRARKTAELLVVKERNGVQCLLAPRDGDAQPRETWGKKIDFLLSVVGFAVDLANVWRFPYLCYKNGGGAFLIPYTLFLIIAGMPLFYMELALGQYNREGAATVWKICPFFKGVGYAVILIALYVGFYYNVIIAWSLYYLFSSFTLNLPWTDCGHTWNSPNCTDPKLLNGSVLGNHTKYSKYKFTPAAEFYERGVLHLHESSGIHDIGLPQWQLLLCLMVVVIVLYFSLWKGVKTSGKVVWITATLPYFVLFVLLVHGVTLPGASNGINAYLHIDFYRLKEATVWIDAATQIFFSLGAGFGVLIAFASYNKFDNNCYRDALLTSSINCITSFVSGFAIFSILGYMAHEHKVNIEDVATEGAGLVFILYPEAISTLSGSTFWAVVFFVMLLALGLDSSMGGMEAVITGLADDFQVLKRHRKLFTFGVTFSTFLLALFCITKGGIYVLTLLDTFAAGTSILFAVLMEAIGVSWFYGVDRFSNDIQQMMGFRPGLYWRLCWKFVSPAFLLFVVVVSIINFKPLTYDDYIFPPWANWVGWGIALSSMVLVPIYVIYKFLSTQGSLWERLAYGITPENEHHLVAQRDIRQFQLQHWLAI
Protocol: (§1) Binding experiments. Binding affinity to the human DAT, SERT, and NET stable proteins expressed in CHO cells was evaluated in in vitro radioligand binding assays. Non-specific binding was determined using [^3H]BTCP, [^3H]imipramine, and ^[3H] nisoxetine for hDAT, hSERT, and hNET, respectively. The IC50 values were calculated by non-linear regression analysis of the competition curves generated from the mean replicate values. The Ki values were calculated using the Cheng–Prusoff equation (Ki = IC50/(1 + […])). Binding assays were carried out by Eurofins (Cerep SA, Celle l’Evescault, France), Study No. 100053935. For an in-depth description, please refer to the report in the supporting information file.

[2] = system: extracellular DA levels in the hippocampus; experiment: In vivo micro-dialysis in freely moving mice; set-up: species or system C57BL76J mice; settings: for treatment effect on extracellular DA levels in hippocampus: 1 mg/kg i.p., experimental day 1; for time course of extracellular DA levels after the peak / increase of extracellular DA levels in hippocampus: 10 mg/kg i.p.; for time course of extracellular DA levels after the peak: experimental day 2; for increase of extracellular DA levels in hippocampus: experimental day 2, within 20 min of administration, relative to baseline
Protocol: Male, adult C57BL76J mice (Janvier-Labs, Saint Berthevin, France) were group-housed in individually ventilated cages under standard laboratory conditions (temperature 22 ± 2 °C, humidity 45–65%, with a 12:12 h light-dark cycle lights on at 07:00 h). Animals had free access to food and water. All experimental procedures were approved by the Austrian Animal Experimentation Ethical Committee (Bundesministerium für Wissenschaft, Forschung und Wirtschaft, Kommission für Tierversuchsangelegenheiten) in compliance with international laws and policies.
Under isoflurane anesthesia (at 5% and 1.5% for induction and maintenance, respectively), a commercially available guide cannula (MAB 4.15 with OD 0.48 mm and ID 0.35 mm, Microbiotech, Stockholm, Sweden) was implanted above the right hippocampus (AP = −2.1 mm, ML = +1.5 mm, DV = −0.7 mm from Bregma) and closed with a dummy probe as described previously. After surgery, animals received buprenorphine (0.5 mg/kg s.c.) and meloxicam (1.0 mg/kg p.o. via the drinking water) for analgesic care. They were allowed to recover for 5–7 days while being single-housed and habituated to the experimenter and experimental procedures. On the day before the experiment, the dummy was replaced by a microdialysis probe (MAB 4.15.1 PES, Microbiotech, Sweden) that extended the guide cannula by 1 mm, thus reaching into the dorsal hippocampus. Microdialysis probes were connected to a microinfusion pump (CMA, Stockholm, Sweden) and a swivel-tether system via polyethylene tubing. Probes were constantly superfused with artificial cerebrospinal fluid (aCSF); consisting of in mM: 140 NaCl, 3.0 KCl, 1.2 CaCl2, 1.0 MgCl2, 1.0 Na2HPO4, pH 7.4, at a flow rate of 0.5 µL/min overnight and 1.0 µL/min during sample collection, respectively. Microdialysis fractions were collected every 20 min in pre-cooled microtubes containing antioxidative protection solution (in mM: 0.27 Na2EDTA, 100 acetic acid, 0.0125 ascorbic acid), vortexed, and immediately frozen at −80 °C until further analysis. At any time, the dead volumes generated by the inlet and outlet systems were considered to cause a temporal delay in fraction collection.
On experimental day 1, vehicle (30% Kolliphor EL) or one of the two enantiomers -7h and 8h (1 mg/kg) was administered i.p. after six baseline samples, and another 12 samples were collected. On experimental day 2, the collection of dialysates was resumed. Again, 6 baseline samples and 12 samples after the administration of either vehicle (30% Kolliphor EL) or 7h/8h (10 mg/kg) were collected. At the end of the experiment, microdialysis probes were superfused with high (100 mM) depolarizing concentrations of potassium (K^+) containing aCSF in order to elicit local […] for testing the functionality of the microdialysis system. Thereafter, animals were euthanized with an overdose of thiopental, decapitated, and their brains removed. The localization of the microdialysis probe was verified by observing cresyl violet-stained coronal sections (40 µm) under a light microscope. Three animals were removed from the analysis due to misplaced probes.
Quantification of dopamine in microdialysates. The quantification of dopamine in microdialysates was performed using a high-performance liquid chromatography (HPLC) system for electrochemical detection, as previously described. The HPLC system consisted of a Shimadzu (Kyoto, Japan) system controller (CBM-20A), a degassing unit (DGU-20A3R), and a micro HPLC pump (LC-20AD) operating at a flow rate of 55 µL/min. Microdialysis samples (5 µL) were injected via a SIL-20ACHT autosampler (Shimadzu, Japan) and separated on a C18 reversed-phase column (Inertsil ODS-3; 50 mm × 1.0 mm ID; 3 µm particle sizes, GL Sciences Inc., Tokyo, Japan) placed in a DECADE II electrochemical detector equipped with an amperometric flow cell (Antec, Zoeterwoude, The Netherlands). […]

[3] = biological target: T2, human DAT (Homo sapiens, UniProt Q01959); experiment: Radioligand binding assay, [3H]BTCP, CHO cells (Eurofins Cerep)
T2 construct: host or cells: CHO
T2 sequence (Q01959 whole entry): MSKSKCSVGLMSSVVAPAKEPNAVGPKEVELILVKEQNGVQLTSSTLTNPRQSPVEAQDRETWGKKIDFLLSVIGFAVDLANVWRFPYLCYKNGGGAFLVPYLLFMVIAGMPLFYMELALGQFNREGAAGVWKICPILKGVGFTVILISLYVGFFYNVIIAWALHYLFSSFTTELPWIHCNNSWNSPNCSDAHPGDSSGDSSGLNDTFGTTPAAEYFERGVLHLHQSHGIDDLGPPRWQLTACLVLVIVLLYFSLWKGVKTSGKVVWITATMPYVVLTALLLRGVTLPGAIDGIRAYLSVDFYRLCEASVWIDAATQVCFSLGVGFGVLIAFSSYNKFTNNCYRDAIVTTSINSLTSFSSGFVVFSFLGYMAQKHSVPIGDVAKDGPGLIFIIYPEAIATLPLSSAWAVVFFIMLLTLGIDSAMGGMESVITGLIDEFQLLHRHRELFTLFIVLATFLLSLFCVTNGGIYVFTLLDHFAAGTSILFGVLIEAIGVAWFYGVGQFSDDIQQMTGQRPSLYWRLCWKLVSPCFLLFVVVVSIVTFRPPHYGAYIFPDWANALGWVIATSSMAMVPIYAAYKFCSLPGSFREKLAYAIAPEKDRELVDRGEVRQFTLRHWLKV
Protocol: as §1

[4] = biological target: T3, DAT-expressing SK-N-MC cells (Homo sapiens, UniProt Q01959); experiment: Superfusion experiments: [3H]MPP+ efflux and d-amphetamine interaction; type: cell-based; settings: for action on the dopamine-releasing effect of D-amphetamine: 3 µM D-amphetamine; for efflux-increasing (releasing) action on DAT-expressing, substrate-loaded superfused cells: compound alone
T3 construct: expressed in transfected cells; host or cells: SK-N-MC (human neuroblastoma)
T3 sequence (Q01959 whole entry, the tested form may be a part): as the sequence (Q01959 whole entry) above

Compound	Ki [1]	treatment effect on extracellular DA levels in hippocampus [2]	time course of extracellular DA levels after the peak [2]	increase of extracellular DA levels in hippocampus [2]	Ki [3]	action on the dopamine-releasing effect of D-amphetamine [4]	efflux-increasing (releasing) action on DAT-expressing, substrate-loaded superfused cells [4]
[O-][S@@+](Cc1cccs1)[C@@H](c1ccccc1)c1cccc(Br)c1 [Compound 7h, (S,S)-2-((((3-bromophenyl)(phenyl)methyl)sulfinyl)methyl)thiophene]	> 10000 nM	no treatment effect	remained elevated throughout a 2 h time period	approximately 35%	13 nM	potent inhibiting action	absence of an efflux-increasing action; also recorded: lack of amphetamine-like effects
[O-][S@+](Cc1cccs1)[C@H](c1ccccc1)c1cccc(Br)c1 [Compound 8h, (R,R)-2-((((3-bromophenyl)(phenyl)methyl)sulfinyl)methyl)thiophene]	> 10000 nM	no treatment effect	constantly declined from the peak values	approximately 35%	35 nM	potent inhibiting action	absence of an efflux-increasing action; also recorded: lack of amphetamine-like effects
